Reference: US20070269830A1, “Process for the Identification of New Medical Targets” (priority 2003, published 2007)

Legend:
[1] = molecular target: T1, E. coli expressed His-tagged human carbonyl reductase (CBR1) (Homo sapiens, UniProt P16152); test: carbonyl reductase activity assay (NADPH oxidation with menadione), recombinant enzyme; assay type: biochemical; details: rate without benserazide 24.0
T1 construct: His; made in house; host or cells: E. coli
T1 sequence (P16152 1-277): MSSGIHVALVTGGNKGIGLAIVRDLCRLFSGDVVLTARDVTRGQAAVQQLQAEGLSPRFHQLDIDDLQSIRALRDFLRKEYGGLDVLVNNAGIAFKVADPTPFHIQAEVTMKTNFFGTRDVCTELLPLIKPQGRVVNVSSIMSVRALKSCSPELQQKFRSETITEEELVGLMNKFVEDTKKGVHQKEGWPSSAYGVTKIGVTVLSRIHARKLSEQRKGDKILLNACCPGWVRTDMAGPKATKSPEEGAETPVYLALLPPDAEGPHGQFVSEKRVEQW
Method: (§1) The carbonyl reductase activity was evaluated spectrophotometrically according to the methods of Iwata et al. 1990. Eur. J. Biochem 193, p. 75-81.: Inazu N, Ruepp B., Wirth H., Wermuth B. 1992. BBA, 1116, p. 50-56 and Imamura et al. 1993. Arch. Biochem. Biophys. 300, p. 570-576. The oxidation rate of NADPH was recorded in the presence of the specific substrate menadione at 340 nm at room temperature on a Jenway 6505 UV/VIS Spectrophotometer.
(§2) The standard assay mixture consisted of 100 mM sodium phosphate buffer pH 7.0, 0.12 mM NADPH, 0.25 mM menadione. The reaction was started by adding 5-20 μg of E. coli expressed His-tagged human carbonyl reductase (CBR1) or alternatively by adding 10 μl of mouse live lysate extract (total protein concentration of 15 mg/ml). The total volume of the reaction mixture was 1 ml. The change of the absorbance was monitored at 340 nm.
(§3) The inhibition of carbonyl reductase was determined using the assay described in example 1. In addition to menadione as a substrate, the assay mixture was supplemented with 0, 0.5, 1, 2, 3, 6, or 7.5 mM benserazide. The inhibition experiment performed with mouse liver lysate as well as with recombinant CBR1 in protein supplemented probes.

[2] = system: carbonyl reductase activity in mouse liver lysate; test: carbonyl reductase activity assay (NADPH oxidation with menadione), mouse liver lysate; assay type: biochemical; details: rate without benserazide 16.3
Method: as §1, §2, §3

[3] = molecular target: T2, Carbonyl Reductase (CBR1) (Mus musculus, UniProt P48758); test: drug pulldown assay with immobilized benserazide, mouse liver cell lysate; assay type: binding; details: benserazide on NHS-activated beads, mass spectrometry identification
T2 construct: from tissue; host or cells: mouse liver
T2 sequence (P48758 1-277): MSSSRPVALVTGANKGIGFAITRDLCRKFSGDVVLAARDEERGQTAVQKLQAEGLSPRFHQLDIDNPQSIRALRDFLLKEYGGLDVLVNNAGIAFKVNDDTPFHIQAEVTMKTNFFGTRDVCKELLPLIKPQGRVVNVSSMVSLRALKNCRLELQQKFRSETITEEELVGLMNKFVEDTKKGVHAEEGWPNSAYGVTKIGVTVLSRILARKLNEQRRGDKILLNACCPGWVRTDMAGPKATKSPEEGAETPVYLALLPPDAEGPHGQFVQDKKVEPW
Method: The compound benserazide was immobilized on NHS-activated beads (Affi Gel 10, BioRad) via its NH2-group. 300 μl of the beads (both with the immobilized. benserazide and control beads) were washed in 10 ml washing buffer A (50 mM Tris, pH 7.5; 0.1 M NaCl, 0.15% lgepal, 1.5 mM MgCl2, 0.1 mM DTT) for 5-10 min at 4° C. and centrifugation for 5 min at 1000 rpm in a Heraeus Varifuge 3 OR).
Mouse liver cell lysate (60-100 mg total protein) and 125 μl 50× protease inhibitor tablets (Roche, Complete, EDTA free) where added to the beads and the suspension was incubated for 1 h at 4° C. (while rotating). The suspension was washed 1-3 × with 10 ml washing buffer B (50 mM Tris, pH 7.5; 0.1 M NaCl, 0.15% lgepal, 1.5 mM MgCl2, 0.1 mM DTT, 1× Protease inhibitor tablet (Complete, EDTA free, Roche)) by rotating the suspension for 5-10 min at 4° C. and centrifugation at 10,000 rpm at 4° C. The beads were transferred to a 1 ml MoBiTec column and connected to a 10 ml syringe. 10 ml washing buffer B were added.
Elution was performed by adding a 5-10 fold excess of the drug relative to the beads capacity. The drug was dissolved in 500 μl washing buffer B and incubated with beads on a rotating platform for 1 h at 4° C. and subsequently eluted in an eppendorf tube. 300 μl of washing buffer B were added to the beads and eluted immediately in the same eppendorf tube. […]

## NC(CO)C(=O)NNCc1ccc(O)c(O)c1O (centres unmarked) [benserazide]
[1]; 2 mM benserazide, 0.25 mM menadione, 0.12 mM NADPH
  initial rate, carbonyl reductase: 13.7 nmol/min
[1]; 6 mM benserazide
  initial rate, carbonyl reductase: 3.5 nmol/min
[1]; 7.5 mM benserazide
  initial rate, carbonyl reductase: 0.3 nmol/min
[2]; 0.5 mM benserazide
  initial rate, mouse liver lysate: 12.1 nmol/min
[2]; 1 mM benserazide
  initial rate, mouse liver lysate: 8.6 nmol/min
[2]; 2 mM benserazide
  initial rate, mouse liver lysate: 1.2 nmol/min
[2]; 3 mM benserazide
  initial rate, mouse liver lysate: 1.3 nmol/min
[3]
  binding of carbonyl reductase (CBR1) to immobilized drug: Identified as a Binding Partner
